Test results published in US4822791A, “Pharmaceutical compositions of-2,2-1,1-[bis-2,2'-(3,1-benzoxazin-4-one)9 ethylenes” (priority 1984, dated 1989).

Columns and labels:
hyaluronidase = molecular target: T1, hyaluronidase (Bos taurus, UniProt Q2YDK3); experiment: Anti-hyaluronidase activity (modified Morgan-Elson method); assay type: biochemical; settings: hyaluronidase 340NF unit/ml; activating agent Compound 48/80 or CaCl2; read-out: IC50
T1 sequence (Q2YDK3 36-553): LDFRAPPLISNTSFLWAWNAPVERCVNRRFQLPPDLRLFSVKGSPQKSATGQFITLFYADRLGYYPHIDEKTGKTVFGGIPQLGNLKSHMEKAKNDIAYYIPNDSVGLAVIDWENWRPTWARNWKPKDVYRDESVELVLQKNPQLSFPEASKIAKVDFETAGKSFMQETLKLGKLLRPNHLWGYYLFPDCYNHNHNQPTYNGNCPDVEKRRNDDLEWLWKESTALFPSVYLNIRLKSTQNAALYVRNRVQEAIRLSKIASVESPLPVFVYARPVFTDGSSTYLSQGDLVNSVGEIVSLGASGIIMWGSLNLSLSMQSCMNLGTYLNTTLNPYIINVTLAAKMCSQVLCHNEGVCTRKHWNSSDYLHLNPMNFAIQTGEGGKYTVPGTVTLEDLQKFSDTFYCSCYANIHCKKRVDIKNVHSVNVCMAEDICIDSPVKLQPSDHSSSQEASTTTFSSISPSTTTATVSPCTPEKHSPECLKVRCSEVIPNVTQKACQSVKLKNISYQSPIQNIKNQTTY

[1] = tested on: Mast cell in thoracic cavity; experiment: Release of histamine by antigen DNP-Ascaris, mast cell in thoracic cavity (Test Example 12); assay type: cell-based; settings: Rattus norvegicus, 10^-3 M, read-out: Effect on release of histamine by antigen DNP-Ascaris, Mast cell in thoracic cavity (control 100)
Experimental: (§1) Collection of mast cells in abdominal cavity and thoracic cavity and sensitizing of cells were conducted in similar manners to those in Test Example 10, respectively.
(§2) (1) Preparation of DNP-Ascaris antiserum was conducted in manner similar to that in Test Example 6.
(§3) This is conducted in amanner similar to that in Test Example 10.
(§4) This is conducted in a manner similar to that in Test Example 10.

[2] = tested on: mast cell in abdominal cavity; experiment: Release of histamine by antigen DNP-Ascaris, mast cell in abdominal cavity (Test Example 12); assay type: cell-based, rat; settings: Rattus norvegicus, Mast cell; 10^-3 M; read-out: Effect on release of histamine by antigen DNP-Ascaris, Mast cell in abdominal cavity (control 100)
Experimental: as §1, §2, §3, §4

IC50 (hyaluronidase): 15 µM
Compound: COc1ccc(C=C(C(=O)Nc2cc(Cl)ccc2C(=O)O)C(=O)Nc2cc(Cl)ccc2C(=O)O)cc1OC [Compound 21]
activity at 1000 µM [1]: 73%
activity at 1000 µM [2]: 48.3%
